Results reported in patent publication US20190225650A1, “PEPTIDOMIMETIC MACROCYCLES AND USE THEREOF IN REGULATING HIF1ALPHA” (AILERON THERAPEUTICS, INC., priority 2013, published 2019).
Bridge positions count the residues as written; N and C are the ends. Square brackets hold non-standard residues; d marks the D form. Peptide text beside a SMILES is read from it. R8 = C=CCCCCCC[C@@](C)(N)C(=O)O; S5 = C=CCCC[C@](C)(N)C(=O)O; Nle = CCCC[C@H](N)C(=O)O

System: HRE-bla ME-180 cells
Test: Reporter gene assay (HRE-bla ME-180 HIF reporter, GeneBLAzer)
Type: cell-based, human
Settings: for EC50: 24 hour normoxia
Outline: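 A FRET β-lactamase readout of HIF transcription was used. After compound treatment in 0.3% DMSO/media under normoxic conditions, 20 μl of 6× LiveBLAzer-FRET B/G (CCF4-AM) substrate was added. Plates sat 3 hr at room temperature in the dark and were read at 409 Ex/460Em and 409Ex/530Em on a Synergy 2. Inhibition was compared against DMSO vehicle controls, with chetomin as positive control.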

Row | EC50 | SMILES | 18 h Avg % max inhibition at top conc (HIF Rptr-24 hrs normoxia) (μM)
1 | 5 to 15 µM | CCCC[C@H](NC(=O)[C@]1(C)CCCC=CCCC[C@](C)(NC(=O)[C@H](CC(=O)O)NC(=O)[C@H](CC(C)C)NC(=O)[C@@H](NC(=O)[C@H](CCC(=O)O)NC(=O)[C@H](CCC(=O)O)NC(=O)[C@H](CC(=O)O)NC(=O)[C@@H](NC(=O)[C@H](Cc2ccccc2)NC(C)=O)[C@@H](C)CC)C(C)C)C(=O)N[C@@H](CC(C)C)C(=O)N[C@@H](C(C)C)C(=O)N[C@@H]([C@@H](C)CC)C(=O)N1)C(=O)N[C@@H](C)C(=O)N[C@@H](CC(C)C)C(=O)N[C@@H](CC(=O)O)C(=O)N[C@@H](CCCNC(=N)N)C(=O)N[C@H](C(N)=O)[C@@H](C)CC [SP-34] (Ac-FIDEEVLD[S5]LVI[S5][Nle]ALDRI-NH2; staple 9-13) | ++++ (≥50: ++++)
2 | 5 to 15 µM | CCCC[C@H](NC(=O)[C@H](CC(C)C)NC(=O)[C@@H](NC(=O)[C@H](CCC(=O)O)NC(=O)[C@H](CCC(=O)O)NC(=O)[C@H](CC(=O)O)NC(=O)[C@@H](NC(=O)[C@H](Cc1ccccc1)NC(C)=O)[C@@H](C)CC)C(C)C)C(=O)N[C@@]1(C)CCCC=CCCC[C@@](C)(C(=O)N[C@@H](CCCC)C(=O)N[C@@H](C)C(=O)N[C@@H](CC(C)C)C(=O)N[C@@H](CC(=O)O)C(=O)N[C@@H](CCCNC(=N)N)C(=O)N[C@H](C(N)=O)[C@@H](C)CC)NC(=O)[C@H](CO)NC(=O)[C@H](C(C)C)NC(=O)[C@H](CC(C)C)NC1=O [SP-53] (Ac-FIDEEVL[Nle][S5]LVS[S5][Nle]ALDRI-NH2; staple 9-13) | +++ (≤25 but <50: +++)
3 | 15 to 30 µM | CCCC[C@H](NC(=O)[C@H](CC(C)C)NC(=O)[C@@H](NC(=O)[C@H](CCC(=O)O)NC(=O)[C@H](CCC(=O)O)NC(=O)[C@H](CO)NC(=O)[C@@H](NC(=O)[C@H](Cc1ccccc1)NC(C)=O)[C@@H](C)CC)C(C)C)C(=O)N[C@@]1(C)CCCC=CCCC[C@@](C)(C(=O)N[C@@H](CCCC)C(=O)N[C@@H](C)C(=O)N[C@@H](CC(C)C)C(=O)N[C@@H](CC(=O)O)C(=O)N[C@@H](CCCNC(=N)N)C(=O)N[C@H](C(N)=O)[C@@H](C)CC)NC(=O)[C@H]([C@@H](C)CC)NC(=O)[C@H](C(C)C)NC(=O)[C@H](CC(C)C)NC1=O [SP-46] (Ac-FISEEVL[Nle][S5]LVI[S5][Nle]ALDRI-NH2; staple 9-13) | +++ (≤25 but <50: +++)
4 | 5 to 15 µM | CCCC[C@H](NC(=O)[C@H](CC(C)C)NC(=O)[C@@H](NC(=O)[C@H](CCC(=O)O)NC(=O)[C@H](CCC(=O)O)NC(=O)[C@H](CC(=O)O)NC(=O)[C@@H](NC(=O)[C@H](Cc1ccccc1)NC(C)=O)[C@@H](C)CC)C(C)C)C(=O)N[C@@]1(C)CCCC=CCCC[C@@](C)(C(=O)N[C@@H](CCCC)C(=O)N[C@@H](C)C(=O)N[C@@H](CC(C)C)C(=O)N[C@@H](CC(=O)O)C(=O)N[C@@H](CCCNC(=N)N)C(=O)N[C@H](C(N)=O)[C@@H](C)CC)NC(=O)[C@H]([C@@H](C)CC)NC(=O)[C@H](C)NC(=O)[C@H](CC(C)C)NC1=O [SP-18] (Ac-FIDEEVL[Nle][S5]LAI[S5][Nle]ALDRI-NH2; staple 9-13) | ++++ (≥50: ++++)
5 | > 30 µM | CCCC[C@H](NC(=O)[C@H](CC(C)C)NC(=O)[C@@H](NC(=O)[C@H](CCC(=O)O)NC(=O)[C@H](CCC(=O)O)NC(=O)[C@H](CC(=O)O)NC(=O)[C@@H](NC(=O)[C@H](Cc1ccccc1)NC(C)=O)[C@@H](C)CC)C(C)C)C(=O)N[C@@]1(C)CCCC=CCCC[C@@](C)(C(=O)N[C@@H](CCCC)C(=O)N[C@@H](C)C(=O)N[C@@H](CC(C)C)C(=O)N[C@@H](CC(=O)O)C(=O)N[C@@H](CO)C(=O)N[C@H](C(N)=O)[C@@H](C)CC)NC(=O)[C@H]([C@@H](C)CC)NC(=O)[C@H](C(C)C)NC(=O)[C@H](CC(C)C)NC1=O [SP-58] (Ac-FIDEEVL[Nle][S5]LVI[S5][Nle]ALDSI-NH2; staple 9-13) | +++ (≤25 but <50: +++)
6 | > 30 µM | CCCC[C@H](NC(=O)[C@H](CC(C)C)NC(=O)[C@@H](NC(=O)[C@H](CCC(=O)O)NC(=O)[C@H](CCC(=O)O)NC(=O)[C@H](CC(=O)O)NC(=O)[C@@H](NC(=O)[C@H](Cc1ccccc1)NC(C)=O)[C@@H](C)CC)C(C)C)C(=O)N[C@@]1(C)CCCC=CCCC[C@@](C)(C(=O)N[C@@H](CCCC)C(=O)N[C@@H](C)C(=O)N[C@@H](CCC(=O)O)C(=O)N[C@@H](CC(=O)O)C(=O)N[C@@H](CCCNC(=N)N)C(=O)N[C@H](C(N)=O)[C@@H](C)CC)NC(=O)[C@H]([C@@H](C)CC)NC(=O)[C@H](C(C)C)NC(=O)[C@H](CC(C)C)NC1=O [SP-40] (Ac-FIDEEVL[Nle][S5]LVI[S5][Nle]AEDRI-NH2; staple 9-13) | + (<10: +)
7 | 5 to 15 µM | CCCC[C@H](NC(=O)[C@H](CC(C)C)NC(=O)[C@@H](NC(=O)[C@H](CCC(=O)O)NC(=O)[C@H](CCC(=O)O)NC(=O)[C@H](CC(=O)O)NC(=O)[C@@H](NC(=O)[C@H](Cc1ccccc1)NC(C)=O)[C@@H](C)CC)C(C)C)C(=O)N[C@@]1(C)CCCC=CCCC[C@@](C)(C(=O)N[C@@H](CCCC)C(=O)N[C@@H](C)C(=O)N[C@@H](CC(C)C)C(=O)N[C@@H](CC(=O)O)C(=O)N[C@@H](C)C(=O)N[C@H](C(N)=O)[C@@H](C)CC)NC(=O)[C@H]([C@@H](C)CC)NC(=O)[C@H](C(C)C)NC(=O)[C@H](CC(C)C)NC1=O [SP-24] (Ac-FIDEEVL[Nle][S5]LVI[S5][Nle]ALDAI-NH2; staple 9-13) | ++++ (≥50: ++++)

Further lines, the compound ahead of its results:

Row | SMILES | EC50 | 18 h Avg % max inhibition at top conc (HIF Rptr-24 hrs normoxia) (μM)
8 | CC[C@H](C)[C@H](NC(=O)[C@H](Cc1ccccc1)NC(C)=O)C(=O)N[C@@H](CC(=O)O)C(=O)N[C@@H](CCC(=O)O)C(=O)N[C@]1(C)CCCCCCC=CCCC[C@@](C)(C(=O)N[C@@H](CCC(=O)O)C(=O)N[C@@H](CCSC)C(=O)NCC(=O)N[C@@H](CC(C)C)C(=O)N[C@@H](CC(=O)O)C(=O)N[C@@H](CCCNC(=N)N)C(=O)N[C@H](C(=O)N[C@@H](CCCCN)C(=O)N[C@@H](CCC(=O)O)C(=O)N[C@@H](CC(C)C)C(=O)N2CCC[C@H]2C(=O)N[C@@H](CCC(=O)O)C(=O)N[C@@H](CC(C)C)C(=O)N[C@@H](Cc2c[nH]c3ccccc23)C(=O)N[C@@H](CC(C)C)C(N)=O)[C@@H](C)CC)NC(=O)[C@H](C(C)C)NC(=O)[C@H](CC(C)C)NC(=O)[C@H](CO)NC(=O)[C@H](CCSC)NC(=O)[C@H](CC(C)C)NC(=O)[C@H](C(C)C)NC1=O [SP-82] (Ac-FIDE[R8]VLMSLV[S5]EMGLDRIKELPELWL-NH2; staple 5-12) | > 30 µM | + (<10: +)
9 | CCCC[C@H](NC(=O)[C@H](CC(C)C)NC(=O)[C@@H](NC(=O)[C@H](CCC(=O)O)NC(=O)[C@H](CCC(=O)O)NC(=O)[C@H](CC(=O)O)NC(=O)[C@@H](NC(=O)[C@H](Cc1ccccc1)NC(C)=O)[C@@H](C)CC)C(C)C)C(=O)N[C@@]1(C)CCCC=CCCC[C@@](C)(C(=O)N[C@@H](CCCC)C(=O)N[C@@H](C)C(=O)N[C@@H](CC(C)C)C(=O)N[C@@H](CC(=O)O)C(=O)N[C@@H](CCCNC(=N)N)C(=O)N[C@H](C(N)=O)[C@@H](C)CC)NC(=O)[C@H](CCC(=O)O)NC(=O)[C@H](C(C)C)NC(=O)[C@H](CC(C)C)NC1=O [SP-37] (Ac-FIDEEVL[Nle][S5]LVE[S5][Nle]ALDRI-NH2; staple 9-13) | > 30 µM | + (<10: +)
10 | CCCC[C@H](NC(=O)[C@H](CC(C)C)NC(=O)[C@@H](NC(=O)[C@H](CCC(=O)O)NC(=O)[C@H](CCC(=O)O)NC(=O)[C@H](CC(=O)O)NC(=O)[C@@H](NC(=O)[C@H](Cc1ccccc1)NC(C)=O)[C@@H](C)CC)C(C)C)C(=O)N[C@@]1(C)CCCC=CCCC[C@@](C)(C(=O)N[C@@H](CCCC)C(=O)N[C@@H](C)C(=O)N[C@@H](CC(C)C)C(=O)N[C@@H](CC(=O)O)C(=O)N[C@@H](CCCNC(=N)N)C(=O)N[C@H](C(=O)N[C@@H](CCC(=O)O)C(N)=O)[C@@H](C)CC)NC(=O)[C@H]([C@@H](C)CC)NC(=O)[C@H](C(C)C)NC(=O)[C@H](CC(C)C)NC1=O [SP-43] (Ac-FIDEEVL[Nle][S5]LVI[S5][Nle]ALDRIE-NH2; staple 9-13) | > 30 µM | +++ (≤25 but <50: +++)
11 | CC[C@H](C)[C@H](NC(=O)[C@H](CCCNC(=N)N)NC(=O)[C@H](CC(=O)O)NC(=O)[C@H](CC(C)C)NC(=O)[C@H](C)NC(=O)[C@H](C)NC(=O)[C@]1(C)CCCC=CCCC[C@](C)(NC(=O)[C@H](C)NC(=O)[C@H](CC(C)C)NC(=O)[C@@H](NC(=O)[C@H](CCC(=O)O)NC(=O)[C@H](CCC(=O)O)NC(=O)[C@H](CC(=O)O)NC(=O)[C@@H](NC(=O)[C@H](Cc2ccccc2)NC(C)=O)[C@@H](C)CC)C(C)C)C(=O)N[C@@H](CC(C)C)C(=O)N[C@@H](C(C)C)C(=O)N[C@@H]([C@@H](C)CC)C(=O)N1)C(N)=O [SP-26] (Ac-FIDEEVLA[S5]LVI[S5]AALDRI-NH2; staple 9-13) | 5 to 15 µM | ++++ (≥50: ++++)
12 | CCCC[C@H](NC(=O)[C@H](CC(C)C)NC(=O)[C@@H](NC(=O)[C@H](CCC(=O)O)NC(=O)[C@H](CCC(=O)O)NC(=O)[C@H](CC(=O)O)NC(=O)[C@@H](NC(=O)[C@H](C)NC(C)=O)[C@@H](C)CC)C(C)C)C(=O)N[C@@]1(C)CCCC=CCCC[C@@](C)(C(=O)N[C@@H](CCCC)C(=O)N[C@@H](C)C(=O)N[C@@H](CC(C)C)C(=O)N[C@@H](CC(=O)O)C(=O)N[C@@H](CCCNC(=N)N)C(=O)N[C@H](C(N)=O)[C@@H](C)CC)NC(=O)[C@H]([C@@H](C)CC)NC(=O)[C@H](C(C)C)NC(=O)[C@H](CC(C)C)NC1=O [SP-9] (Ac-AIDEEVL[Nle][S5]LVI[S5][Nle]ALDRI-NH2; staple 9-13) | 15 to 30 µM | +++ (≤25 but <50: +++)
